Data as given in US20190169140A1, “IDO1 INHIBITOR AND PREPARATION METHOD AND APPLICATION THEREOF” (SHANDONG LUYE PHARMACEUTICAL CO., LTD., priority 2016, published 2019).

Molecular target: T1, recombinant human IDO1 enzyme (Homo sapiens, UniProt P14902)
T1 construct: purchased NTRC (Netherlands Translational Research Center) NTRC-hIDO-10K
Assay: Test of hIDO1 for enzymatic activity in vitro (NFK Green fluorescence)
Type: biochemical
Procedure: 1. Test of hIDO1 for Enzymatic Activity In Vitro
1.1 Purpose of Experiment:
Changes in production of NFK, an IDO1 enzymatic metabolite were detected with NFK Green™ fluorescent molecules. With an IC50 value of a compound as an index, an inhibitory effect of the compound on recombinant human IDO1 enzyme was evaluated.
The compound was diluted with dimethyl sulfoxide (DMSO) to 1 mM, with 10 gradients, each 3-fold dilution, in duplicate. 48 μL of 50 mM phosphate buffer, having pH of 6.5, was transferred by the Bravo automatic liquid processing platform to the compound plate. Then 2 μL of an already diluted compound/DMSO solution was added. After even mixing, 10 μL of the resultant mixture was transferred to the enzymatic reaction plate.
IDO1 enzyme was diluted to 20 nM in a reaction buffer (50 mM phosphate buffer with pH of 6.5, 0.1% of Tween-20, 2% of glycerol, 20 mM ascorbic acid, 20 μg/ml catalase, and 20 μM methylene blue), 20 μL of the diluted IDO1 enzyme was transferred to the enzymatic reaction plate, and incubated at 23° C. for 30 minutes. 10 μL of 400 μM L-type tryptophan substrate was added to start reaction. The incubation lasted at 23° C. for 90 minutes. 10 μL of NFK Green™ fluorescent dye was added. The resultant mixture was sealed with the plate sealing film. After incubation at 37° C. for 4 hours, an Envision multi-functional plate reader was used for reading (Ex 400 nm/Em 510 nm).
A reference well to which the IDO1 enzyme was added but no compound was added was set to have an inhibition rate of 0%, and a reference well to which no IDO1 enzyme was added was set to have an inhibition rate of 100%. Data was analyzed with XLFit 5 to calculate an IC50 value of the compound.

T1 sequence (P14902 whole entry): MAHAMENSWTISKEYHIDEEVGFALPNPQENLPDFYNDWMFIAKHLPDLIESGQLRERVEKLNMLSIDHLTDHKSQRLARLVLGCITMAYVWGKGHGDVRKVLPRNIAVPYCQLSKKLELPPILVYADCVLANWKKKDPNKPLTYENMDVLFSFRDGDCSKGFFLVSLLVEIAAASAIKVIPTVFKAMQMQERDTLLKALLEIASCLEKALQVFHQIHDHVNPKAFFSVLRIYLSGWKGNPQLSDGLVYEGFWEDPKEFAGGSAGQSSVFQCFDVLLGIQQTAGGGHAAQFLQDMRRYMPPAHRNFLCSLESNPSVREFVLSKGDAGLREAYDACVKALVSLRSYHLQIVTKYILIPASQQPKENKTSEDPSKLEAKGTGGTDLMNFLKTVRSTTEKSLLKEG

| IC50 | SMILES |
| --- | --- |
| > 10 µM | O/N=C(\Nc1ccc(F)c(Br)c1)c1nonc1O [Compound 0026] |
| > 10 µM | COc1nonc1/C(=N/C#N)Nc1ccc(F)c(Br)c1 [Compound 0069] |
| 1.38 µM | NS(=O)(=O)NC1(COc2nonc2/C(=N/O)Nc2ccc(F)c(Br)c2)CC1 [Compound 0070] |
| 0.799 µM | CC(COc1nonc1/C(=N/O)Nc1ccc(F)c(Br)c1)NS(N)(=O)=O (stereo not drawn) [Compound 0071] |
| > 10 µM | NOc1nonc1/C(=N/O)Nc1ccc(F)c(Br)c1 [Compound 0077] |
| > 10 µM | CC(C)(C)OC(=O)NOc1nonc1/C(=N/O)Nc1ccc(F)c(Br)c1 [Compound 0078] |
| 0.981 µM | NS(=O)(=O)NC(COc1nonc1/C(=N/O)Nc1ccc(F)c(Br)c1)c1ccccc1 (stereo not drawn) [Compound 0089] |
| 0.537 µM | COc1nonc1/C(=N/O)Nc1ccc(F)c(C#N)c1 [Compound 0103] |
| 1.3 µM | O=S(=O)(NCCOc1nonc1/C(=N/O)Nc1ccc(F)c(Br)c1)c1ccccc1 [Compound 0107] |
| 0.387 µM | O=C(NCCOc1nonc1/C(=N/O)Nc1ccc(F)c(Br)c1)c1ccccc1 [Compound 0108] |
| 2.07 µM | CC(CNS(N)(=O)=O)Oc1nonc1/C(=N/O)Nc1ccc(F)c(Br)c1 (stereo not drawn) [Compound 0119] |
| 0.616 µM | N#Cc1cc(N/C(=N\O)c2nonc2OCCNS(N)(=O)=O)ccc1F [Compound 0120] |
| 0.188 µM | NS(=O)(=O)NCCOc1nonc1/C(=N/O)Nc1ccc(F)c(C(F)(F)F)c1 [Compound 0121] |
| 0.565 µM | NS(=O)(=O)NCCOc1nonc1/C(=N/O)Nc1ccc(F)c(C2CC2)c1 [Compound 0122] |
| 1.03 µM | O/N=C(\Nc1ccc(F)c(Br)c1)c1nonc1OC1CCOC1 (stereo not drawn) [Compound 0124] |
| 0.601 µM | COCCCCOc1nonc1/C(=N/O)Nc1ccc(F)c(Br)c1 [Compound 0128] |
| 0.426 µM | O/N=C(\Nc1ccc(F)c(Br)c1)c1nonc1OCC1COC1 [Compound 0129] |
| 0.702 µM | O/N=C(\Nc1ccc(F)c(Br)c1)c1nonc1OCCc1ccccn1 [Compound 0131] |
| 1.03 µM | CN(CCOc1nonc1/C(=N/O)Nc1ccc(F)c(Br)c1)Cc1ccccc1 [Compound 0133] |
| 7.15 µM | O/N=C(\Nc1ccc(F)c(Br)c1)c1nonc1SCc1ccccc1Cl [Compound 0134] |
| 3.29 µM | O/N=C(\Nc1ccc(F)c(Br)c1)c1nonc1OCC(F)(F)F [Compound 0135] |
| 5.71 µM | O/N=C(\Nc1ccc(F)c(Br)c1)c1nonc1SC1CCCCC1 [Compound 0137] |
| 0.364 µM | C=CCSc1nonc1/C(=N/O)Nc1ccc(F)c(Br)c1 [Compound 0138] |
| 0.197 µM | CN(C)CCOc1nonc1/C(=N/O)Nc1ccc(F)c(Br)c1 [Compound 0140] |

| IC50 | SMILES |
| --- | --- |
| 0.452 µM | CS(=O)(=O)N1CC(COc2nonc2/C(=N/O)Nc2ccc(F)c(Br)c2)C1 [Compound 0141] |
| 1.31 µM | CS(=O)(=O)N1CCC(COc2nonc2/C(=N/O)Nc2ccc(F)c(Br)c2)CC1 [Compound 0142] |
| > 10 µM | O/N=C(\Nc1ccc(F)c(Br)c1)c1nonc1OCc1c[nH]cn1 [Compound 0143] |
| > 10 µM | O/N=C(\Nc1ccc(F)c(Br)c1)c1nonc1OCc1cncs1 [Compound 0144] |
| > 10 µM | O/N=C(\Nc1ccc(F)c(Br)c1)c1nonc1Oc1ccc(Cl)cc1 [Compound 0150] |
| 5.7 µM | NS(=O)(=O)NCCOc1nonc1/C(=N/O)Nc1cc(F)c(Cl)c(F)c1 [Compound 0156] |
| 4.36 µM | COc1c(F)cc(N/C(=N\O)c2nonc2OCCNS(N)(=O)=O)cc1F [Compound 0158] |
| 3.83 µM | NS(=O)(=O)NCCOc1nonc1/C(=N/O)Nc1ccc(Cl)c(Cl)c1 [Compound 0160] |
| 0.928 µM | NS(=O)(=O)NCCOc1nonc1/C(=N/O)Nc1ccc(F)c(F)c1 [Compound 0162] |
| 0.594 µM | O=C1NCCN1CCOc1nonc1/C(=N/O)Nc1ccc(F)c(Br)c1 [Compound 0179] |
| > 10 µM | CCS(=O)(=O)CCOc1nonc1/C(=N/O)Nc1ccc(F)c(Br)c1 [Compound 0180] |
| 0.673 µM | CN(C)CCN(C)CCOc1nonc1/C(=N/O)Nc1ccc(F)c(Br)c1 [Compound 0182] |
| 1.12 µM | CCN(CC)C(=O)COc1nonc1/C(=N/O)Nc1ccc(F)c(Br)c1 [Compound 0183] |
| 4.83 µM | NS(=O)(=O)NCCOc1nonc1/C(=N/O)Nc1ccc(Cl)c(C(F)(F)F)c1 [Compound 0184] |
| 0.59 µM | NS(=O)(=O)NCCOc1nonc1/C(=N/O)Nc1cc(F)c(F)c(Br)c1 [Compound 0189] |
| 0.945 µM | NS(=O)(=O)NCCOc1nonc1/C(=N/O)Nc1ccc(F)c(Cl)c1 [Compound 0190] |
| 0.466 µM | NS(=O)(=O)N[C@H]1C[C@H](Oc2nonc2/C(=N/O)Nc2ccc(F)c(Br)c2)C1 [Compound 0222] |
| 0.203 µM | O=S(=O)(NCCSc1nonc1/C(=N/O)Nc1ccc(F)c(Br)c1)C1CC1 [Compound 0230] |
| 0.373 µM | CN(C)S(=O)(=O)NCCSc1nonc1/C(=N/O)Nc1ccc(F)c(Br)c1 [Compound 0232] |
| 0.846 µM | NS(=O)(=O)NCC[S+]([O-])c1nonc1/C(=N/O)Nc1ccc(F)c(Br)c1 (stereo not drawn) [Compound 0239] |
| 0.0726 µM | CCNC(=O)CSc1nonc1C(=NO)Nc1ccc(F)c(Br)c1 [Compound 0300] |
| 0.125 µM | O=C(CSc1nonc1/C(=N/O)Nc1ccc(F)c(Br)c1)NCC(F)(F)F [Compound 0301] |
| 0.088 µM | O=C(CSc1nonc1/C(=N/O)Nc1ccc(F)c(Br)c1)NCC(F)F [Compound 0302] |

| SMILES | IC50 |
| --- | --- |
| CP(C)(=O)NCCOc1nonc1/C(=N/O)Nc1ccc(F)c(Br)c1 [Compound 0149] | 0.29 µM |
